Assay in all cases: PTP IC50 assay, pNPP or FDP as substrate
Common to all, as to format: biochemical

For one experiment, the target named is T1, PTP MEG2 (Homo sapiens, UniProt P43378).
T1 construct: made in house; host or cells: E. coli BL-21 (pGEX 6P-1)
T1 sequence (P43378 262-593 limits assumed): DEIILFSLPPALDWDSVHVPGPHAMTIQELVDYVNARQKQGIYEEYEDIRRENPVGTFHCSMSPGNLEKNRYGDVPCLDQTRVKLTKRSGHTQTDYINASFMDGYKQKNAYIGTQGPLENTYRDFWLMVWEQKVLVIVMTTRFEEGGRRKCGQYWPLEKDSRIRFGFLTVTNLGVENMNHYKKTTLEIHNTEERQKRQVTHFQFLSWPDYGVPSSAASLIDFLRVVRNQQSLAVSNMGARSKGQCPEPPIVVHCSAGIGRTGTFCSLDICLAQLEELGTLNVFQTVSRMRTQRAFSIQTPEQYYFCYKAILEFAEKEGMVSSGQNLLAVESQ
A digest of the protocol:
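Human PTP MEG2 was cloned into pGex 6P-1 for GST-fusion expression. Absorbance at 410 nm gave % inhibition, with the IC50 interpolated from the concentration plot.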

Another experiment concerns the target T2, PTP SHP2 (Homo sapiens, UniProt Q06124).
T2 construct: The catalytic domain was amplified using the following oligonucleotides; made in house; host or cells: Sf-9 insect cells (pFastBac-G2T)
T2 sequence (Q06124 247-517 limits assumed): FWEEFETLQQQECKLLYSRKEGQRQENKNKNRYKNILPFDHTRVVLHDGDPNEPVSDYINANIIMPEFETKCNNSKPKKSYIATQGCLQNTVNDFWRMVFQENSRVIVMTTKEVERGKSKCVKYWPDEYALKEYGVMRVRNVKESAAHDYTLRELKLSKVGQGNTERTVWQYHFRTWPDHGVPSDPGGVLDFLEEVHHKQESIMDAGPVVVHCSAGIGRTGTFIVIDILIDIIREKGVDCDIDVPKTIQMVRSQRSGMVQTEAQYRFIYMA

The target in another experiment is T3, PTP ALPHA (Homo sapiens, UniProt P18433).
T3 construct: RTPα intracellular domain construct was obtained; made in house; host or cells: E. coli BL-21 (pGEX 3X)
To be noted: 25° C.

Another experiment deals with T4, PTP EPSILON (Homo sapiens, UniProt P23469).
T4 construct: made in house; host or cells: Sf-9 insect cells (pFastBac-G2T); a pGEX 6P-1 construct also existed
A digest of the protocol: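 Human PTPε was GST-tagged and subcloned for baculovirus expression. After NaOH quench, p-nitrophenol was read at 410 nm with no-enzyme correction, and IC50 was interpolated from % inhibition.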

Setting [1] is: pNPP or FDP as substrate, 25° C., read-out: PTP IC50 MEG2.
[2] abbreviates: pNPP or FDP as substrate, 25° C., read-out: PTP IC50 SHP2.
The mark [3] stands for this setting: pNPP or FDP as substrate, 25° C., read-out: PTP IC50 Epilson.

SMILES strings stand for the structures. Read-outs that look alike come from different tables or passages of the source.

T4 sequence (P23469 80-393 limits assumed): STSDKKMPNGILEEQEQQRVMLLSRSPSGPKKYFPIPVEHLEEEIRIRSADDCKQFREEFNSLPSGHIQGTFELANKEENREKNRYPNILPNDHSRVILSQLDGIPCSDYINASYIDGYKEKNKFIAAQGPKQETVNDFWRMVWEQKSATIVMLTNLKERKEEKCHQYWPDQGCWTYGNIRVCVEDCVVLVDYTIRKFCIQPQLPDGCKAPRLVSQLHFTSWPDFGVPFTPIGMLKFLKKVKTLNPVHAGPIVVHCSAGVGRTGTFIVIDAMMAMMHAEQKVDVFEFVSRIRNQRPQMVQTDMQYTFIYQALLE

By IC50 is commonly meant the concentration that gives 50% inhibition. For `O=S(=O)(Nc1ccc(OCCCCOc2ccc(NS(=O)(=O)C(F)(F)F)cc2)cc1)C(F)(F)F` [Example 70, 1,4-Bis(4-trifluoromethylsulfonamidophenoxy)butane], the concentration for half-maximal inhibition (IC50) was found to be 70.7 µM at PTP MEG2 (setting [1]), 17.1 µM at PTP SHP2 (setting [2]), 46 µM at PTP ALPHA and 48.4 µM at PTP EPSILON (setting [3]).

As to `O=S(=O)(Nc1ccc(Oc2ccc(Oc3ccc(NS(=O)(=O)C(F)(F)F)cc3)cc2)cc1)C(F)(F)F` [Example 71, 1,4-Bis(4-trifluoromethylsulfonamidophenoxy)benzene], the IC50 at PTP MEG2 (comparison of R groups, read-out: IC50 MEG2) worked out at 39.4 µM; on PTP MEG2 (setting [1]) it was 39.4 µM; on PTP SHP2 (comparison of R groups, read-out: IC50 SHP2), 3.4 µM; on PTP SHP2 (setting [2]), 3.4 µM; at PTP ALPHA, 11.9 µM; on PTP EPSILON (comparison of R groups, read-out: IC50 Epsilon), 16.9 µM. In addition, at PTP EPSILON (setting [3]), the IC50 is 16.9 µM.
